Assays:
α2-GABAA receptor = α2-GABAA receptor (Rattus norvegicus, UniProt P18508+P23576); experiment: Ligand-binding assay, radiolabeled flumazenil competition, rat spinal cord membranes; conditions: for inhibition at 10 µM: read-out: % Inhibition (10^−5 M), affinity for α2-GABAA receptor; for inhibition at 0.1 µM: read-out: % Inhibition (10^−7 M), affinity for α2-GABAA receptor
Experimental: Determination of the affinity of test compounds for α1- and α2-GABAA receptor.
Male Sprague-Dawley rats weighing 200-250 g at the time of experiment were used. After decapitation of the animal, the cerebellum (tissue that mostly contains α1-GABAA receptor) and spinal cord (tissue that mostly contains α2-GABAA receptor) were removed. The membranes were prepared according to the method by J. Lameh et al. (Prog. Neuro-Psychopharmacol. Biol. Psychiatry, 24, 979-991, 2000). Once the tissues weighed, they were suspended in 50 mM Tris.HCl (pH 7.7), 1:40 (v/v), homogenized and then centrifuged at 20000 g for 10 min at 7° C. The resulting pellet was resuspended under the same conditions and centrifuged again. The pellet was finally resuspended on a minimum volume and kept at −80° C. overnight. On the next day, the process was repeated until the final pellet was resuspended at a ratio of 1:10 (v/v).
Affinity was determined by competitive tests using radiolabeled flumazenil as ligand. The tests were performed according to the methods described by S. Arbilla et al. (Eur. J. Pharmacol., 130, 257-263, 1986); and Y. Wu et al. (Eur. J. Pharmacol., 278, 125-132, 1995). The membranes containing the study receptors, flumazenil (radiolabeling at a final concentration of 1 nM) and ascending concentrations of test compounds (in a total volume of 500 μl in […] [ph 7.4] Tris.HCl buffer) were incubated. Simultaneously, the membranes were only incubated with the radiolabeled flumazenil (total binding, 100%) and in the presence of an elevated concentration of unradiolabeled flumazenil (non-specific binding, % estimation of radiolabeled ligand). The reactions started on adding the radiolabeled ligand followed by incubation for 60 minutes at 0° C. At the end of the incubation period, the tubes were filtered using a Brandel Mod. M-48R harvester and then washed three times with cold test buffer. The harvester was fitted with a GF/B filter that retained the membranes containing the receptors and the radiolabeled ligand which had been bound to the receptors. Then the filters were removed and left till dry. Once dried, the filters were cut, placed in vials with scintillation liquid and left under stirring overnight. The next day the filters were counted using a Packard Mod. Tricarb scintillation counter.
X: amount of bound ligand for every concentration of compound.
T: total binding, maximum amount bound to the radiolabeled ligand.
N: non-specific binding, amount of radiolabeled ligand bound in a non-specific way irrespective of the receptor used.
Every concentrations of compound were tested in duplicate and their mean values were used to determine the experimental values of % specific binding versus the concentration of compound. […] Inhibition constants (Ki) were calculated from the IC50 values according to Cheng-Prusoff's formula (Y. Cheng y W. H. Prusoff, Biochem. Pharmacol., 22(23), 3099-3108, 1973).

male CD1 mice = experiment: Predictive sedation-hypnosis test in mice (motor activity, crossings); format: in vivo; conditions: single equimolecular intraperitoneal dose, crossings over 30 min after dosing (first 5 min discarded) versus control
Experimental: • In vivo determination of predictive sedative-hypnotic action.
The in vivo effects of these compounds were assessed by a predictive sedation-hypnosis test in mice (D. J. Sanger et al., Eur. J. Pharmacol., 313, 35-42, 1996; and G. Griebel et al., Psychopharmacology, 146, 205-213, 1999). Groups of 5-8 male CD1 mice, weighing 22-26 g at the time of test, were used. The test compounds were administered in single equimolecular intraperitoneal doses, suspended in 0.25% agar with one drop of Tween in a volume of 10 ml/kg. Control animals received the vehicle alone. Using an Actisystem DAS16 (Panlab, S. L., Spain) the crossings (number of counts) were recorded for each mouse at 5-min intervals during a period of 30 minutes after dosing. The inhibition percentage of crossings of treated animals versus control animals (the first 5 min were discarded) was calculated.

## CN(c1cccc(-c2ccnc3c(C(=O)c4ccc(F)cc4)cnn23)c1)S(C)(=O)=O [Example 51, N-methyl-N-{3-[3-(fluorobenzene-4-carbonyl)-pyrazolo[1,5-a]pyrimidin-7-yl]-phenyl}-methanesulfonamide]
α2-GABAA receptor
  inhibition at 10 µM: 94.7%
  inhibition at 0.1 µM: 16.8%
Male CD1 mice
  % Motor Activity Inhibition: 90.04%

## CCN(c1cccc(-c2ccnc3c(C(=O)c4ccc(F)cc4)cnn23)c1)S(C)(=O)=O [Example 52, N-ethyl-N-{3-[3-(fluorobenzene-4-carbonyl)-pyrazolo[1,5-a]pyrimidin-7-yl]-phenyl}-methanesulfonamide]
α2-GABAA receptor
  inhibition at 10 µM: 61.2%
  inhibition at 0.1 µM: 0%
Male CD1 mice
  % Motor Activity Inhibition: 92.83%

## CCS(=O)(=O)N(C)c1cccc(-c2ccnc3c(C(=O)c4ccc(F)cc4)cnn23)c1 [Example 53, N-methyl-N-{3-[3-(fluorobenzene-4-carbonyl)-pyrazolo[1,5-a]pyrimidin-7-yl]-phenyl}-ethanesulfonamide]
α2-GABAA receptor
  inhibition at 10 µM: 89.8%
  inhibition at 0.1 µM: 1%
Male CD1 mice
  % Motor Activity Inhibition: 94.89%

## CCN(c1cccc(-c2ccnc3c(C(=O)c4ccc(OC)cc4)cnn23)c1)S(C)(=O)=O [Example 58, N-ethyl-N-{3-[3-(4-methoxybenzoyl)-pyrazolo[1,5-a]pyrimidin-7-yl]-phenyl}-methanesulfonamide]
α2-GABAA receptor
  inhibition at 10 µM: 93.8%
  inhibition at 0.1 µM: 24%
Male CD1 mice
  % Motor Activity Inhibition: 93.31%

## Cc1ccc(C(=O)c2cnn3c(-c4cccc(N(C)S(C)(=O)=O)c4)ccnc23)cc1 [Example 63, N-methyl-N-{3-[3-(4-methylbenzoyl)-pyrazolo[1,5-a]pyrimidin-7-yl]-phenyl}-methanesulfonamide]
α2-GABAA receptor
  inhibition at 10 µM: 91.3%
  inhibition at 0.1 µM: 0%
Male CD1 mice
  % Motor Activity Inhibition: 95.32%

## CCN(c1cccc(-c2ccnc3c(C(=O)c4ccc(C)cc4)cnn23)c1)S(C)(=O)=O [Example 64, N-ethyl-N-{3-[3-(4-methylbenzoyl)-pyrazolo[1,5-a]pyrimidin-7-yl]-phenyl}-methanesulfonamide]
α2-GABAA receptor
  inhibition at 10 µM: 61.5%
  inhibition at 0.1 µM: 20.9%
Male CD1 mice
  % Motor Activity Inhibition: 90.32%

## C#CCN(c1cccc(-c2ccnc3c(C(=O)c4ccc(C)cc4)cnn23)c1)S(C)(=O)=O [Example 68, N-2-propynyl-N-{3-[3-(4-methylbenzoyl)-pyrazolo[1,5-a]pyrimidin-7-yl]-phenyl}-methanesulfonamide]
α2-GABAA receptor
  inhibition at 10 µM: 92.7%
  inhibition at 0.1 µM: 31.6%
Male CD1 mice
  % Motor Activity Inhibition: 87.78%

## CN(c1cccc(-c2ccnc3c(C(=O)c4ccccc4)cnn23)c1)S(C)(=O)=O [Example 69, N-methyl-N-{3-[3-(benzoyl)-pyrazolo[1,5-a]pyrimidin-7-yl]-phenyl}-methanesulfonamide]
α2-GABAA receptor
  inhibition at 10 µM: 99%
  inhibition at 0.1 µM: 36.7%
Male CD1 mice
  % Motor Activity Inhibition: 96.90%

## CCN(c1cccc(-c2ccnc3c(C(=O)c4ccccc4)cnn23)c1)S(C)(=O)=O [Example 70, N-ethyl-N-{3-[3-(benzoyl)-pyrazolo[1,5-a]pyrimidin-7-yl]-phenyl}-methanesulfonamide]
α2-GABAA receptor
  inhibition at 10 µM: 99.9%
  inhibition at 0.1 µM: 63.4%
Male CD1 mice
  % Motor Activity Inhibition: 94.54%

## CCN(c1cccc(-c2ccnc3c(C(=O)c4ccccc4)cnn23)c1)S(=O)(=O)CC [Example 72, N-ethyl-N-{3-[3-(benzoyl)-pyrazolo[1,5-a]pyrimidin-7-yl]-phenyl}-ethanesulfonamide]
α2-GABAA receptor
  inhibition at 10 µM: 98.6%
  inhibition at 0.1 µM: 44.9%
Male CD1 mice
  % Motor Activity Inhibition: 93.78%

## CN(c1cccc(-c2ccnc3c(C(=O)c4cccs4)cnn23)c1)S(=O)(=O)CC(F)(F)F [Example 76, N-methyl-N-{3-[3-(thiophene-2-carbonyl)-pyrazolo[1,5-a]pyrimidin-7-yl]-phenyl}-2,2,2-trifluoroethane-sulfonamide]
α2-GABAA receptor
  inhibition at 10 µM: 41.7%
  inhibition at 0.1 µM: 0%
Male CD1 mice
  % Motor Activity Inhibition: 78.36%

## CN(c1cccc(-c2ccnc3c(C(=O)c4cccs4)cnn23)c1)S(=O)(=O)c1ccccc1Cl [Example 77, N-methyl-N-{3-[3-(thiophene-2-carbonyl)-pyrazolo[1,5-a]pyrimidin-7-yl]-phenyl}-2-chlorobenzene-sulfonamide]
α2-GABAA receptor
  inhibition at 10 µM: 88.5%
  inhibition at 0.1 µM: 13.8%
Male CD1 mice
  % Motor Activity Inhibition: 70.12%

## CN(c1cccc(-c2ccnc3c(C(=O)c4cccs4)cnn23)c1)S(=O)(=O)c1cccc(Cl)c1 [Example 78, N-methyl-N-{3-[3-(thiophene-2-carbonyl)-pyrazolo[1,5-a]pyrimidin-7-yl]-phenyl}-3-chlorobenzenesulfonamide]
α2-GABAA receptor
  inhibition at 10 µM: 36.2%
  inhibition at 0.1 µM: 0%
Male CD1 mice
  % Motor Activity Inhibition: 36.12%

## CN(c1cccc(-c2ccnc3c(C(=O)c4cccs4)cnn23)c1)S(=O)(=O)c1ccc(Cl)cc1 [Example 79, N-methyl-N-{3-[3-(thiophene-2-carbonyl)-pyrazolo[1,5-a]pyrimidin-7-yl]-phenyl}-4-chlorobenzenesulfonamide]
α2-GABAA receptor
  inhibition at 10 µM: 52.9%
  inhibition at 0.1 µM: 0%
Male CD1 mice
  % Motor Activity Inhibition: 51.50%

## CN(c1cccc(-c2ccnc3c(C(=O)c4cccs4)cnn23)c1)S(=O)(=O)c1ccccc1C#N [Example 82, N-methyl-N-{3-[3-(thiophene-2-carbonyl)-pyrazolo[1,5-a]pyrimidin-7-yl]-phenyl}-2-cyanobenzene-sulfonamide]
α2-GABAA receptor
  inhibition at 10 µM: 31.8%
  inhibition at 0.1 µM: 0%
Male CD1 mice
  % Motor Activity Inhibition: 39.87%

## CN(c1cccc(-c2ccnc3c(C(=O)c4cccs4)cnn23)c1)S(=O)(=O)c1cccc(C#N)c1 [Example 83, N-methyl-N-{3-[3-(thiophene-2-carbonyl)-pyrazolo[1,5-a]pyrimidin-7-yl]-phenyl}-3-cyanobenzene-sulfonamide]
α2-GABAA receptor
  inhibition at 10 µM: 94.4%
  inhibition at 0.1 µM: 39.1%
Male CD1 mice
  % Motor Activity Inhibition: 53.38%

## CN(c1cccc(-c2ccnc3c(C(=O)c4cccs4)cnn23)c1)S(=O)(=O)c1ccc(C#N)cc1 [Example 84, N-methyl-N-{3-[3-(thiophene-2-carbonyl)-pyrazolo[1,5-a]pyrimidin-7-yl]-phenyl}-4-cyanobenzene-sulfonamide]
α2-GABAA receptor
  inhibition at 10 µM: 89.5%
  inhibition at 0.1 µM: 0%
Male CD1 mice
  % Motor Activity Inhibition: 68.98%

## CN(c1cccc(-c2ccnc3c(C(=O)c4cccs4)cnn23)c1)S(=O)(=O)c1cccs1 [Example 87, N-methyl-N-{3-[3-(thiophene-2-carbonyl)-pyrazolo[1,5-a]pyrimidin-7-yl]-phenyl}-2-thiophene-sulfonamide]
α2-GABAA receptor
  inhibition at 10 µM: 97.6%
  inhibition at 0.1 µM: 65.1%
Male CD1 mice
  % Motor Activity Inhibition: 74.88%

## Cc1nc(C)c(S(=O)(=O)N(C)c2cccc(-c3ccnc4c(C(=O)c5cccs5)cnn34)c2)s1 [Example 91]
α2-GABAA receptor
  inhibition at 10 µM: 84.1%
  inhibition at 0.1 µM: 4.8%
Male CD1 mice
  % Motor Activity Inhibition: 72.85%

## CN(c1cccc(-c2ccnc3c(C(=O)c4cccs4)cnn23)c1)S(=O)(=O)C1CC1 [Example 92, N-methyl-N-{3-[3-(thiophene-2-carbonyl)-pyrazolo[1,5-a]pyrimidin-7-yl]-phenyl}-cyclopropyl-sulfonamide]
α2-GABAA receptor
  inhibition at 10 µM: 95.7%
  inhibition at 0.1 µM: 36.5%
Male CD1 mice
  % Motor Activity Inhibition: 74.36%

## C=CS(=O)(=O)N(C)c1cccc(-c2ccnc3c(C(=O)c4cccs4)cnn23)c1 [Example 94, N-methyl-N-{3-[3-(thiophene-2-carbonyl)-pyrazolo[1,5-a]pyrimidin-7-yl]-phenyl}-vinylsulfonamide]
α2-GABAA receptor
  inhibition at 10 µM: 99.5%
  inhibition at 0.1 µM: 41.2%
Male CD1 mice
  % Motor Activity Inhibition: 88.69%

Source: patent publication US7947688B2, “N-[3-(3-substituted-pyrazolo[1,5-a]pyrimidin-7-yl)phenyl]-sulfonamides, and compositions, and methods related thereto” (Ferrer Internacional, S.A., priority 2003, dated 2011)
